What was measured:
[1] = test system: TLR4; experiment: LPS-induced NFκB reporter assay in HEK293_TLR4 cells; type: cell-based, human; conditions: peptide 5 or 25 μM added 2 or 9 hours after 10 ng/ml LPS
Protocol: FIGS. 20A and B are bar charts showing the effect of shortened A464 peptides with deletions of N- and C-terminal amino acids on TLR4- and TLR3-induced NFκB activation in HEK293 cells. HEK293_TLR4 (A) and HEK293_TLR3 (B) cells were seeded in 96 well plates (1.5×10^5 cells/ml) 24 hours before transfection with the plasmid DNA. Cells were transfected with 60 ng NFκB-Luciferase and 20 ng of TK-Renilla reporter genes, as in FIG. 11. A464N-2 (SEQ ID NO. 41) and A464C-3 (SEQ ID NO. 42) peptides were added to the cells at a concentration of 1, 5 or 25 μM the next day and cells were stimulated with either 10 ng/ml LPS (A) or 25 μg/ml Poly(I:C) (B) 1 hour after treatment with peptides. Cells were harvested and assayed for NFκB activation by reporter gene assay 6 hours after stimulation with the agonists. No peptides were added to the control wells (black bars). Data is representative of three experiments each performed in triplicate and is expressed as mean fold induction±s.d. relative to control levels;
FIGS. 24A and B are bar charts showing the effect of A464 on ligand-independent TLR4 signalling in HEK293 cells. HEK293_TLR4 cells were seeded in 96 well plate (1.5×10^5 cells/ml) 24 hours before transfection with NFκB-luciferase and TK-Renilla reporter gene plasmids. NFκB activation was stimulated by transfecting either 50 or 100 ng of CD4/TLR4-encoding plasmid or by stimulating with 10 ng/ml LPS. The total amount of plasmid DNA transfected into the cells was made up to 230ng by adding pcDNA. A464 (SEQ ID NO. 20) was added to the cells at a concentration of 5 or 25 μM 2 hours (A) or 9 hours (B) after the transfection or LPS-stimulation. Cells were harvested and assayed for NFκB activation by reporter gene assay 24 hours post-transfection. No peptides were added to the control wells (black bars). Data is representative of two experiments, each performed in triplicate and is expressed as mean fold induction±s.d. relative to control levels;
HEK293 cells were transfected using GeneJuice® a proprietary non-toxic transfection reagent. […]

[2] = target: T1, TLR3 (Mus musculus, UniProt Q99MB1); experiment: poly(I:C)-induced TNFα in RAW264.7 cells, ELISA; type: cell-based, murine; conditions: peptide 5, 20 or 50 μM, 25 μg/ml Poly(I:C), 24 h
T1 construct: endogenous in cells; host or cells: RAW264.7
Protocol: FIGS. 10A and B are bar charts showing the effect of A464 on poly(I:C)-induced TNFα in murine RAW264.7 cells. Cells were seeded in 96 well plates (1.5×10^5 cells/nil) 24 hours before treatment. […] Supernatants were collected 24 hours after stimulation and assayed for TNFα by ELISA (A) and cells were assayed for viability by the MTT assay (B). No peptides were added to the control wells (black bars). Data is representative of at least three experiments each performed in triplicate and is expressed as mean±s.d;
Cytokine and chemokine production from cells or mouse serum was measured by ELISA using Duoset kits from R&D systems, according to the manufacturer's instructions.
In order to determine whether A464 (SEQ ID No. 20) was specific for TLR4, other TLR pathways were next assayed for sensitivity to A464 (SEQ ID No. 20). A scrambled version of A464 (SEQ ID No. 20) peptide was designed to use as a further control peptide, and this had the sequence: […] (ConA464, SEQ ID No. 32). The A464R (SEQ ID No. 20) and ConA464 (SEQ ID No. 32) peptides were assayed for inhibition of TLR2 signalling in THP-1 cells. Pam3CysK4 (S-(2,3-bis(palmitoyloxy)-(2-RS)-propyl)-N-palmitoyl-(R)-Cys-(S)-Ser-(S)-Lys(4)) is a synthetic tripalmitoylated lipopeptide that is recognized by a TLR2/TLR1 heterodimer and leads to activation of NFκB through a Mal- and MyD88-dependent pathway. […]

TLR4, sequence (O00206 24-839): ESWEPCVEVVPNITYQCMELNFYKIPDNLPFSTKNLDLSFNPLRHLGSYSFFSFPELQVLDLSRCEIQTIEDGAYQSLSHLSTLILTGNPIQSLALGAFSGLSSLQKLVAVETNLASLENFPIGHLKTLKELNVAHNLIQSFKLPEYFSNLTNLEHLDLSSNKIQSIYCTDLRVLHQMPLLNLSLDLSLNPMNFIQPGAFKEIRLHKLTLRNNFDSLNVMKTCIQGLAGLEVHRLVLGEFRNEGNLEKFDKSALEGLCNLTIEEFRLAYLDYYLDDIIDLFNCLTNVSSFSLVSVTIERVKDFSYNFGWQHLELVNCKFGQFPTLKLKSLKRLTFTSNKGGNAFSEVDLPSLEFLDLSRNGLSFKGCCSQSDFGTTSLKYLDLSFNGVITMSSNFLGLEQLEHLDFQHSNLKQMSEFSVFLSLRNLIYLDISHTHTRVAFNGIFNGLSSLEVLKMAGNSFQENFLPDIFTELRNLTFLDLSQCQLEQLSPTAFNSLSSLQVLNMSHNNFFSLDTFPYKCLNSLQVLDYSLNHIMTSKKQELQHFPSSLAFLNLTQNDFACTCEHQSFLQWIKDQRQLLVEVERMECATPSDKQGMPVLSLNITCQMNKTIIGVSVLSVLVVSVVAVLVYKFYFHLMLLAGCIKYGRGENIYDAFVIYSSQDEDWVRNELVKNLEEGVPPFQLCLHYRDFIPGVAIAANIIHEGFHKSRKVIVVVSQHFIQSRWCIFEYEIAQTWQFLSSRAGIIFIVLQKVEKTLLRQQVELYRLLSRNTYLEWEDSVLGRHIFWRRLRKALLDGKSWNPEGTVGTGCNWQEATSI
TLR4, sequence (Q9Y6Y9 17-160 partner limits assumed): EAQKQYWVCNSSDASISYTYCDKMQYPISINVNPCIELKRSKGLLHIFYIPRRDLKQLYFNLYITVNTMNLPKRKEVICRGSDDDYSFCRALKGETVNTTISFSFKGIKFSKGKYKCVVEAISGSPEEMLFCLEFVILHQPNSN
T1 sequence (Q99MB1 26-905): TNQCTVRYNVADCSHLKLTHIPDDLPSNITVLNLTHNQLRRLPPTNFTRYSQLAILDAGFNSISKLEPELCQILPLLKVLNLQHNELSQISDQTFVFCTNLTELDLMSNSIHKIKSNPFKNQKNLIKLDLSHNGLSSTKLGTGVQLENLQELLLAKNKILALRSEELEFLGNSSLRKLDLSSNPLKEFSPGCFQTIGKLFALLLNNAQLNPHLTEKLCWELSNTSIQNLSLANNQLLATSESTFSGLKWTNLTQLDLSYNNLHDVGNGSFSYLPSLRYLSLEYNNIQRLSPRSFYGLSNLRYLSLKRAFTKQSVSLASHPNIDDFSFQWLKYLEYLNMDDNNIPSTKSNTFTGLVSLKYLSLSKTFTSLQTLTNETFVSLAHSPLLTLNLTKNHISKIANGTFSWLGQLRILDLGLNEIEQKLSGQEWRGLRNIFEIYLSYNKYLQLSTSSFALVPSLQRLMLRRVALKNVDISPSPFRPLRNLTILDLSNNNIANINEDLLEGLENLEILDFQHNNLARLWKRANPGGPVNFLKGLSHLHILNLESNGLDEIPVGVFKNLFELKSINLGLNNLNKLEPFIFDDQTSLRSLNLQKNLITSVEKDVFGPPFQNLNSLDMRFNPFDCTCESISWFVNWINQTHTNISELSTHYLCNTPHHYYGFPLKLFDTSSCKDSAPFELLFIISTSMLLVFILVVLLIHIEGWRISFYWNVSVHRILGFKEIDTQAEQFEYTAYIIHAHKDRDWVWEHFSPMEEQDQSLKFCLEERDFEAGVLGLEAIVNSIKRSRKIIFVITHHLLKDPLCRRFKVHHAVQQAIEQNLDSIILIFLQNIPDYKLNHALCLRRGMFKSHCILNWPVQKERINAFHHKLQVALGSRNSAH

Sequence: KYSFKLILAEYRRRRRRRRR [Peptide A464]
- inhibition of LPS-induced NFκB activation [1]: capable of inhibiting LPS-induced NFκB activation
- inhibition of poly(I:C)-induced mTNFα production [2]: some inhibition of mTNFα production in response to stimulation with 25 mg/ml Poly(I:C) was seen but only at a concentration of 50 μM

Source: US8722052B2, “Vaccinia virus protein A46 peptide and use thereof” (priority 2008, dated 2014)
